Data published in patent US5874583A, “2,3-dihydro-1H-isoindole derivatives” (Hoechst Marion Roussel Inc., priority 1997, dated 1999).
Structures can show the parent of a compound that is named as a salt.

System: serotonin (5-hydroxytryptamine (5HT)) uptake
Test: [3H]-Serotonin uptake in rat whole brain and hypothalamic synaptosomes
Type: biochemical
Details: [3H]-5HT 50 nM, 37° C., 5 minutes
Experimental: [^3 H]-Serotonin Uptake in Rat Whole Brain and Hypothalamic Synaptosomes
This activity is determined in an assay which measures [^3 H]-serotoninuptake in rat whole brain and hypothalamic synaptosomes. The assay described below is used as a biochemical screen for potential antidepressants which block serotonin (5-hydroxytryptamine (5HT)) uptake.
Male CR Wistar rats (100-125 g)
1. Krebs-Henseleit Bicarbonate Buffer, pH 7.4 (KHBB):
The batch is aerated for 60 minutes with 95% 02 /5% CO2, the pH is checked to insure it is at 7.4±0.1, then add bovine serum albumin (Sigma cat# A-7906) 1 mg/ml.
3. Sucrose solution: 0.32M sucrose containing 5 mM HEPES and 0.1 mM EDTA; pH to 7.3 using Tris base.
4. A 0.1 mM stock solution of serotonin creatinine SO4 is made up in 0.01N HCl. This is used to dilute the specific activity of the radiolabeled 5HT.
The final desired concentration of [^3 H]-5HT in the assay is 50 nM. The dilution factor is 0.8. The KHBB is made up to contain 62.5 nM of [^3 H]-5HT.
6. For most assays, a 0.5 mM stock solution of the test compound is made up initially in either 10 μl of glacial acetic acid, 100 μl DMSO or 10 μl of the recrystallization solvent, to which is added approximately 10 ml of distilled water. Compounds are initially screened in duplicate at 3 concentrations (10^-8, 10^-7 and 10^-6 M) made up in water.
The Percoll method for preparing synaptosomes has been modified from Nagy, A., Delgado-Escueta, A. V. J. Neurochem. 43, 1114 (1984) and Dunkley, P. R., Jarvie, R. E., Heath, J. W., Kidd, G. J., Rostas, J. A. P. Brain Research 372, 115 (1986). Male Wistar rats are decapitated and the brain rapidly removed. Whole brain (minus cerebellum) is weighed and homogenized in 15 volumes of ice cold Sucrose solution using a Potter-Elvejhem homogenizer. The following procedures are performed on ice. Homogenization should be done with 4-5 up and down strokes at medium speeds (setting 4.5 to 5) to minimize synaptosome lysis. The homogenate is centrifuged at 1000 g (3000 rpm, Sorvall SS-34 rotor) for 10 minutes at 0°-4° C.
The Percoll gradient tubes are carefully placed into a Beckman SW-28 swinging bucket rotor and spun in a Beckman XL90 ultracentrifuge using the following program: speed, 11,000 rpm (15,000 g) for 30 minutes at 4° C.; slow acceleration and deceleration (acceleration setting 9; deceleration setting 3). Tubes are carefully removed, and the top layer and the top part of the middle (red) layer are discarded using a pasteur pipette. The synaptosomes are located in the white fluffy band at the interface between the 10% and 21% Percoll layers. This is carefully removed, placed in a centrifuge tube, diluted with KHBB and spun at 21,000 g (13,000 rpm, Sorvall SS-34 rotor). The pellet (synaptosomes) is resuspended in KHBB (10 vol per gram original brain wet weight; 1 brain minus cerebellum weighs approximately 1.2 g; 2.5 brains are needed per typical assay).
200 μl of the tissue suspension are added to each of 24 tubes (at a time) containing the 20 μl of vehicle or drug on ice. Three minutes later, 800 μl of KHBB containing [^3 H]-5HT are added, and the tubes are vortexed. The rack containing the 24 tubes is moved from the ice bath to a water bath set at 37° C. The tubes are incubated for 5 minutes under 95% O2 /5% CO2.

Compound	IC50 [nM]
CC1c2ccccc2CN1c1ccncc1 (centres unmarked) [2,3-Dihydro-1-Methyl-2-(4-Pyridyl)-1H-Isoindole Fumarate]	736
CCC1c2ccccc2CN1c1ccncc1 (centres unmarked) [2,3-Dihydro-1-Ethyl-2-(4-Pyridyl)-1H-Isoindole Maleate]	1140
c1ccc2c(c1)CN(c1ccncc1)C2 [2,3-Dihydro-2-(4-Pyridyl)-1H-Isoindole Maleate]	880
CC(C)CC1c2ccccc2CN1c1ccncc1 (centres unmarked) [2,3-dihydro-1-(2-methylpropyl)-2-(4-pyridyl)-1H-isoindole maleate]	849
CCCC1c2ccccc2CN1c1ccncc1 (centres unmarked) [2,3-Dihydro-1-Propyl-2-(4-Pyridyl)-1H-Isoindole Maleate]	725
